EC50 and IC50 data for two compounds are collected here from patent US7595345B2, “Vitamin D receptor modulators” (Eli Lilly and Company, priority 2003, dated 2009).

Experiment [1] addresses T1, RXR-VDR heterodimer (Gal4-RXR-DEF and VP16-VDR-LBD) (Homo sapiens, UniProt P11473).
T1 construct: Add the Gal4-RXR-DEF and VP16-VDR-LBD; expressed in transfected cells; host or cells: SaOs-2 cells
T1 sequence (P11473 127-423 limits assumed): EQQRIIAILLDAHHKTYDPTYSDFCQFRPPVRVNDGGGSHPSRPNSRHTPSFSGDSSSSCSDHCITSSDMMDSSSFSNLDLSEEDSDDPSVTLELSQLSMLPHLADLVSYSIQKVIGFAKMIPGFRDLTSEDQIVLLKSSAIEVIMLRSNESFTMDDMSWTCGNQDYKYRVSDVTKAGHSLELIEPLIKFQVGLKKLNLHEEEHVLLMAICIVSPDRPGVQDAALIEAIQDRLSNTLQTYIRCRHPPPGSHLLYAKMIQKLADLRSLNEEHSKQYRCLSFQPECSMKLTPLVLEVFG
T1 sequence (P19793 201-462 partner limits assumed): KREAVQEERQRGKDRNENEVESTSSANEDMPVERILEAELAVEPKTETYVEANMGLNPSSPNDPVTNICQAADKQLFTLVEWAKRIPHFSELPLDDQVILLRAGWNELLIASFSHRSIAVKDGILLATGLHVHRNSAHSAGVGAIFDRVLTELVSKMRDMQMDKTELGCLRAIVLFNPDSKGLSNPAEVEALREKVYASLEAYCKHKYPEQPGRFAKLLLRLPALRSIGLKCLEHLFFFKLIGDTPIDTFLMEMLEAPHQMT
Description: RXR-VDR heterodimerization assay (SaOS-2 cells). It counts as cell-based. The settings on record: luciferase reporter pFR-LUC. The text has this:
1. The RXR-VDR Heterodimer Assay:
This assay provides the VDR activity of a test compound.
This is an in vitro efficacy assay for psoriasis, abscess and adhesion. Psoriasis involves both keratinocytes and immune cells. IL-10 is a unique cytokine because it is anti-inflammatory and immunosuppressive. This assay tells us whether a VDRM is able to function as an agonist in PBMCs (primary blood mononuclear cells) or not. […] 7. Other Compound Assay Standards An alternative measure of the efficacy of compounds of the invention for treatment of osteoporosis is a numerical ratio calculated as follows: • Dose Threshold needed to induce hypercalcemia • divided by • Dose Threshold needed for bone efficacy An alternative measure of the efficacy of compounds of the invention for treatment of psoriasis is a numerical ratio calculated as follows: • Dose Threshold needed to induce hypercalcemia • divided by • Dose Threshold needed to induce keratinocyte proliferation For the above ratios, Dose Thresholds are determined from dose response curve data. 8. The CaT1 (Calcium Transport Protein 1) Assay The CaT1 Assay is an indicator for the undesirable condition of hypercalcemia. […] Preferred assay results are greater than 1000 nM. Details of the Assay Methods: (1) Materials and Method for RXR-VDR Heterodimerization Assay: Transfection Method:
Grow SaOs-2 cells in T-152 cm^2 culture flasks in growth media.
Keep the density at 5-6×10^5 cells/ml
Passage cells 1:3 twice a week
Resuspend cells in plating media and transfer into growth media.
Transfection/Treatment Media:
D-MEM Low Glucose Without Phenol Red only
T-152 cm^2 culture flask:
Use well plate to plate cells
Use Deep well plate sterile to make up treatment media.
Luciferase Assay Reagent:
Use Steady-Glo Luciferase Reagent from Promega (Cat #E2550) Consists of:
a. E2533 Assay Substrate, lyophilized product and
Aspirate media from culture flask, rinse cells with HBSS and aspirate.
Add trypsin and incubate. […]
Read the plates after drug treatment […]
Count each well using a Luminescence counter, Top Count NXT by Packard […]
Background: Reporter assays use an easily measured gene product as a stand-in for the process of interest.

Experiment [2] has as its system KERtr cells. Description: Keratinocyte proliferation assay. The experiment is classed as cell-based. The settings on record: Homo sapiens, 72 hr, BrdU incorporation, read-out: Kera. Prolif. IC50. Here is the method: 5. The Keratinocyte Proliferation Assay
This Assay is indicative for the treatment of psoriasis.
(5) The Keratinocyte Proliferation Assay:
KERtr cells (Human skin keratinocyte transformed with a retrovirus vector, obtained from ATCC) were plated in 96-well flat-bottomed plates (3000 cells/well) in 100 µl keratinocyte serum free medium supplemented with bovine pituitary extract in the absence of EGF (Life Technologies, Rockville, Md.) and incubated at 37° C. for two days. The cells were treated with various concentrations of VDR ligands (ten-fold serial dilution from 10,000 nM to 0.1 nM in triplicate), dissolved in 100 µl keratinocyte serum free medium supplemented with bovine pituitary extract in the absence of EGF and incubated at 37° C. for 72 hr. BrdU (5-bromo-2′-deoxyuridine) incorporation was analyzed as a measure of DNA replication (Cell proliferation ELISA kit, Roche Diagnostics, Indianapolis, Ind.) and absorbance was measured at 405 nm. Potency values (IC50) values were determined as the concentration (nM) of compound that elicited a half-maximal response.
(In general: Uptake of a labelled nucleoside into DNA is a usual measure of proliferation.)

Usually EC50 stands for the concentration needed to bring the measured effect to its halfway point. High values mean a less potent agent, low ones a more potent agent. The term IC50 denotes the concentration that inhibits the measured activity by half.

Several values for one entry are separate records, joined by “and”; a condition that tells them apart may be missing. Equal entries are not always repeated.

Turning to `CCC(CC)(c1ccc(OCC(O)(C(C)C)C(C)C)c(C)c1)c1ccc(C(=O)NCC(=O)O)c(C)c1` [Ex. 4, (4-{1-Ethyl-1-[4-(2-hydroxy-2-isopropyl-3-methyl-butoxy)-3-methyl-phenyl]-propyl}-2-methyl-benzoylamino)-acetic acid], in experiment [1], the half-maximal effective concentration (EC50) was 257 nM and 127 nM.
`CCC(O)(CC)COc1ccc(C(CC)(CC)c2ccc(C(=O)NCC(=O)O)c(C)c2)cc1C` [Ex. 3, (4-{1-ethyl-1-[4-(2-ethyl-2-hydroxy-butoxy)-3-methyl-phenyl]-propyl}-2-methyl-benzoylamino)-acetic acid]: the EC50 in experiment [1] was 301 nM and 149 nM. Also, the IC50 in experiment [2] is 121 nM.
